The source of these data is article PMC9974468 (Proceedings of the National Academy of Sciences of the …, 2023).

Assay type in all cases: binding
Assay [1] has as its target FGFR2K (FGFR2 kinase domain) (Homo sapiens, UniProt P21802, C491A). Put plainly: NMR titration, 1H/[…] HMQC chemical shift perturbation.
In assay [2] the target is FGFR2K V564E^0Y (FGFR2 kinase domain) (Homo sapiens, UniProt P21802, C491A/V564E/Y466F/Y586L/Y588P/Y656F/Y657F). Put plainly: NMR titration, 1H/[…] methyl HMQC chemical shift perturbation.
Chain of FGFR2K V564E^0Y (FGFR2 kinase domain) (P21802 458-768 Y466F/C491A/V564E/Y586L/Y588P/Y656F/Y657F): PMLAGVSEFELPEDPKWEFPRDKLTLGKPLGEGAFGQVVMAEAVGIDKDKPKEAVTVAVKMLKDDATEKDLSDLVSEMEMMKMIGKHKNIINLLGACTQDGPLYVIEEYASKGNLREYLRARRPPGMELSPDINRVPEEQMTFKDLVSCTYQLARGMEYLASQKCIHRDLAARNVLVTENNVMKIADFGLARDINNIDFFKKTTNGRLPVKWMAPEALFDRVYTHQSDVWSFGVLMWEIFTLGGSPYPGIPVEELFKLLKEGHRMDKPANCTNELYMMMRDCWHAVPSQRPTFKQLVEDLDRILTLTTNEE
Assay [3] has as its target FGFR2K WT^0Y (FGFR2 kinase domain) (Homo sapiens, UniProt P21802, C491A/Y466F/Y586L/Y588P/Y656F/Y657F). Described as above.
Assay [4] has as its target FGFR2K V564I^0Y (FGFR2 kinase domain) (Homo sapiens, UniProt P21802, C491A/V564I/Y466F/Y586L/Y588P/Y656F/Y657F). Described as above.

Chain of FGFR2K WT^0Y (FGFR2 kinase domain) (P21802 458-768 Y466F/C491A/Y586L/Y588P/Y656F/Y657F): as the sequence (P21802 458-768 Y466F/C491A/V564E/Y586L/Y588P/Y656F/Y657F) above, with E107V counted along it
Chain of FGFR2K V564I^0Y (FGFR2 kinase domain) (P21802 458-768 Y466F/C491A/V564I/Y586L/Y588P/Y656F/Y657F): as the sequence (P21802 458-768 Y466F/C491A/V564E/Y586L/Y588P/Y656F/Y657F) above, with E107I counted along it
Chain of FGFR2K (FGFR2 kinase domain) (P21802 458-768 C491A): as the sequence (P21802 458-768 Y466F/C491A/V564E/Y586L/Y588P/Y656F/Y657F) above, with F9Y, E107V, L129Y, P131Y, F199Y, F200Y counted along it

For the compound `Nc1ncnc2c1ncn2[C@@H]1O[C@H](COP(=O)(O)OP(=O)(O)CP(=O)(O)O)[C@@H](O)[C@H]1O` [AMP-PCP], the dissociation constant (Kd) in assay [1] turned out to be 2900 ± 100 µM.
As to `Nc1ncnc2c1ncn2[C@@H]1O[C@H](COP(=O)(O)OP(=O)(O)OP(=O)(O)O)[C@@H](O)[C@H]1O` [ATP], the results for the Kd in assay [2], in assay [3] and in assay [4] were 140 ± 20 µM, 450 ± 70 µM and 280 ± 30 µM, respectively.

One may read the Kd as a measure of binding affinity in units of concentration.
